Experimental data taken from ChEMBL document CHEMBL1201862, “PubChem BioAssay data set” (2004).
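Compound exposure: 48 hours, 5 concentrations, 96-well plates. GI50: concentration for 50% inhibition of growth.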 Activity calls are given as the source filed them. Cut-off read from the data, not from the text of the source: active = GI50 up to about 1.1 µM and inactive = higher.

How the values were obtained:
Experiment in all cases: NCI-60 cell line screen, 48 h
786-0 = test system: 786-0
A498 = test system: A498
A549 = test system: A549
ACHN = test system: ACHN
BT-549 = test system: BT-549
CAKI-1 = test system: CAKI-1
CCRF-CEM = test system: CCRF-CEM
COLO 205 = test system: COLO 205
DU-145 = test system: DU-145
EKVX = test system: EKVX
HCC 2998 = test system: HCC 2998
HCT-116 = test system: HCT-116
HCT-15 = test system: HCT-15
HL-60 = test system: HL-60
HOP-62 = test system: HOP-62
HOP-92 = test system: HOP-92
HT-29 = test system: HT-29
Hs-578T = test system: Hs-578T
IGROV-1 = test system: IGROV-1
K562 = test system: K562
KM12 = test system: KM12
LOX IMVI = test system: LOX IMVI
M14 = test system: M14
MCF7 = test system: MCF7
MDA-MB-231 = test system: MDA-MB-231
MDA-MB-435 = test system: MDA-MB-435
MDA-N = test system: MDA-N
MOLT-4 = test system: MOLT-4
Malme-3M = test system: Malme-3M
NCI-H226 = test system: NCI-H226
NCI-H23 = test system: NCI-H23
NCI-H460 = test system: NCI-H460
NCI-H522 = test system: NCI-H522
NCI/ADR-RES = test system: NCI/ADR-RES
OVCAR-3 = test system: OVCAR-3
OVCAR-4 = test system: OVCAR-4
OVCAR-5 = test system: OVCAR-5
OVCAR-8 = test system: OVCAR-8
PC-3 = test system: PC-3
RPMI-8226 = test system: RPMI-8226
RXF 393 = test system: RXF 393
SF-268 = test system: SF-268
SF-295 = test system: SF-295
SF-539 = test system: SF-539
SK-MEL-28 = test system: SK-MEL-28
SK-MEL-2 = test system: SK-MEL-2
SK-MEL-5 = test system: SK-MEL-5
SK-OV-3 = test system: SK-OV-3
SN12C = test system: SN12C
SNB-19 = test system: SNB-19
SNB-75 = test system: SNB-75
SR = test system: SR
SW-620 = test system: SW-620
T47D = test system: T47D
TK-10 = test system: TK-10
U-251 = test system: U-251
UACC-257 = test system: UACC-257
UACC-62 = test system: UACC-62
UO-31 = test system: UO-31
KM-20L2 = test system: KM-20L2
M19-MEL = test system: M19-MEL
SNB-78 = test system: SNB-78

COc1cc(CCNC2=CC(=O)c3ncccc3C2=O)ccc1O
GI50 (786-0): 4.2 µM (inactive)
GI50 (A498): 16.6 µM (inactive)
GI50 (A549): 2.1 µM (inactive)
GI50 (ACHN): 4.71 µM (inactive)
GI50 (BT-549): 1.46 µM (inactive)
GI50 (CAKI-1): 3.94 µM (inactive)
GI50 (CCRF-CEM): 3.56 µM (inactive)
GI50 (COLO 205): 18.6 µM (inactive)
GI50 (DU-145): 3.6 µM (inactive)
GI50 (EKVX): 8.85 µM (inactive)
GI50 (HCC 2998): 4.23 µM (inactive)
GI50 (HCT-116): 3.17 µM (inactive)
GI50 (HCT-15): 1.94 µM
GI50 (HL-60): 3.01 µM (inactive)
GI50 (HOP-62): 2.39 µM (inactive)
GI50 (HOP-92): 19.2 µM (inactive)
GI50 (HT-29): 4.2 µM (inactive)
GI50 (Hs-578T): 2.36 µM (inactive)
GI50 (IGROV-1): 2.29 µM (inactive)
GI50 (K562): 2.21 µM (inactive)
GI50 (KM12): 5.25 µM (inactive)
GI50 (LOX IMVI): 0.65 µM (active)
GI50 (M14): 1.71 µM (inactive)
GI50 (MCF7): 2.44 µM (inactive)
GI50 (MDA-MB-231): 2.37 µM (inactive)
GI50 (MDA-MB-435): 1.44 µM (inactive)
GI50 (MDA-N): 1.37 µM (inactive)
GI50 (MOLT-4): 2.99 µM (inactive)
GI50 (Malme-3M): 0.753 µM (active)
GI50 (NCI-H226): 2.7 µM (inactive)
GI50 (NCI-H23): 0.828 µM (active)
GI50 (NCI-H460): 1.02 µM (active)
GI50 (NCI-H522): 2.08 µM (inactive)
GI50 (NCI/ADR-RES): 2.93 µM (inactive)
GI50 (OVCAR-3): 1.22 µM (inactive)
GI50 (OVCAR-4): 4.79 µM (inactive)
GI50 (OVCAR-5): 8.91 µM (inactive)
GI50 (OVCAR-8): 2.41 µM (inactive)
GI50 (PC-3): 2.65 µM (inactive)
GI50 (RPMI-8226): 6.76 µM (inactive)
GI50 (RXF 393): 5.45 µM (inactive)
GI50 (SF-268): 8.11 µM (inactive)
GI50 (SF-295): 1.6 µM (inactive)
GI50 (SF-539): 3.04 µM (inactive)
GI50 (SK-MEL-28): 2 µM (inactive)
GI50 (SK-MEL-2): 2.53 µM (inactive)
GI50 (SK-MEL-5): 0.54 µM (active)
GI50 (SK-OV-3): 12.6 µM (inactive)
GI50 (SN12C): 1.97 µM (inactive)
GI50 (SNB-19): 3.48 µM (inactive)
GI50 (SNB-75): 1.63 µM (inactive)
GI50 (SR): 3.48 µM (inactive)
GI50 (SW-620): 2.84 µM (inactive)
GI50 (T47D): 21.8 µM (inactive)
GI50 (TK-10): 26.9 µM (inactive)
GI50 (U-251): 2.09 µM (inactive)
GI50 (UACC-257): 1.9 µM (inactive)
GI50 (UACC-62): 1.96 µM (inactive)
GI50 (UO-31): 5.3 µM (inactive)

CC1OC(O[C@@H]2C=C3CC[C@@H]4[C@H](CC[C@]5(C)[C@@H](c6ccc(=O)oc6)CC[C@]45O)[C@@]3(C)CC2)C(O)C(O)C1O (some centres undefined)
GI50 (A498): 0.03 µM (active)
GI50 (ACHN): 0.00179 µM (active)
GI50 (CCRF-CEM): 0.03 µM (active)
GI50 (COLO 205): 0.03 µM (active)
GI50 (HCT-15): 0.0475 µM
GI50 (HT-29): 0.03 µM (active)
GI50 (Hs-578T): 0.00119 µM (active)
GI50 (IGROV-1): 0.03 µM (active)
GI50 (K562): 0.03 µM (active)
GI50 (KM-20L2): 0.03 µM (active)
GI50 (KM12): 0.03 µM (active)
GI50 (LOX IMVI): 0.03 µM (active)
GI50 (M19-MEL): 0.03 µM (active)
GI50 (MCF7): 0.03 µM (active)
GI50 (NCI-H23): 0.0475 µM (active)
GI50 (OVCAR-5): 0.03 µM (active)
GI50 (OVCAR-8): 0.03 µM (active)
GI50 (RPMI-8226): 0.03 µM (active)
GI50 (SK-MEL-28): 0.03 µM (active)
GI50 (SNB-19): 0.03 µM (active)
GI50 (SW-620): 0.03 µM (active)
GI50 (U-251): 0.03 µM (active)
GI50 (UACC-257): 0.03 µM (active)

COC1=CC23C=CC1[C@@H](c1ccccc1)C2=C(C)C(=O)N3C(=O)NC1CCCCC1 (some centres undefined)
GI50 (786-0): 15.5 µM (inactive)
GI50 (A498): 25.6 µM (inactive)
GI50 (A549): 24.7 µM (inactive)
GI50 (ACHN): 30.9 µM (inactive)
GI50 (CAKI-1): 16.9 µM (inactive)
GI50 (CCRF-CEM): 25.7 µM (inactive)
GI50 (EKVX): 28.7 µM (inactive)
GI50 (HCC 2998): 21.6 µM (inactive)
GI50 (HCT-116): 15 µM (inactive)
GI50 (HCT-15): 5.11 µM
GI50 (HL-60): 21 µM (inactive)
GI50 (HOP-62): 21.5 µM (inactive)
GI50 (HOP-92): 19 µM (inactive)
GI50 (HT-29): 19.7 µM (inactive)
GI50 (IGROV-1): 61.2 µM (inactive)
GI50 (K562): 28.2 µM (inactive)
GI50 (KM-20L2): 22.2 µM (inactive)
GI50 (KM12): 31.3 µM (inactive)
GI50 (LOX IMVI): 17 µM (inactive)
GI50 (M14): 19 µM (inactive)
GI50 (MOLT-4): 18 µM (inactive)
GI50 (NCI-H226): 20.4 µM (inactive)
GI50 (NCI-H23): 18.5 µM (inactive)
GI50 (NCI-H460): 20.1 µM (inactive)
GI50 (NCI-H522): 18.9 µM (inactive)
GI50 (OVCAR-3): 24.2 µM (inactive)
GI50 (OVCAR-5): 23.7 µM (inactive)
GI50 (OVCAR-8): 25.3 µM (inactive)
GI50 (RXF 393): 3.45 µM (inactive)
GI50 (SF-268): 15.8 µM (inactive)
GI50 (SF-295): 22.4 µM (inactive)
GI50 (SF-539): 19.4 µM (inactive)
GI50 (SK-MEL-28): 18.5 µM (inactive)
GI50 (SK-MEL-2): 17.5 µM (inactive)
GI50 (SK-MEL-5): 14.9 µM (inactive)
GI50 (SK-OV-3): 39 µM (inactive)
GI50 (SN12C): > 10 µM (inactive)
GI50 (SNB-19): 31.8 µM (inactive)
GI50 (SNB-75): 3.78 µM (inactive)
GI50 (SNB-78): 26.4 µM (inactive)
GI50 (SR): 20.2 µM (inactive)
GI50 (SW-620): 19.5 µM (inactive)
GI50 (TK-10): 26.7 µM (inactive)
GI50 (U-251): 16.5 µM (inactive)
GI50 (UACC-257): 26.6 µM (inactive)
GI50 (UACC-62): 26.5 µM (inactive)
GI50 (UO-31): 20.7 µM (inactive)
